These results are taken from paper PMC7906907, “Targeting STAT3 by a small molecule suppresses pancreatic cancer progression” (Oncogene, 2021).

Structures are written as SMILES.

Experiment [1] concerns PAN02-luc. The experiment can be described thus: Orthotopic pancreatic cancer tumor model. To be noted: week 4, C188-9 group. Type of experiment: in vivo, C57BL/6 mice. On the procedure:
Fig. 7 N4 inhibits tumor growth in an orthotopic pancreatic cancer model. C57BL/6 mice were injected the tail of the pancreas with luciferase-expressing PAN02 cells (PAN02-luc) in matrigel and tumor growth was assessed (A) and quantified (B) by bioluminescent imaging weekly. Data represent the mean ± SD; *P < 0.05, **P < 0.01, ***P < 0.001, ****P < 0.0001, n.s. not significant by one-way ANOVA followed by multiple-comparison tests. (n = 5 mice per group) C After 4 weeks, mice were sacrificed and the pancreas were imaged. The tumor of pancreas were photographed (D) and weighted (E), scale bar, 0.5 cm.
Briefly, specimens of tumor tissue from xenograft models and orthotopic models were fixed with 4% paraformaldehyde solution at 4 °C overnight. […] Then, according to the manufacturer’s instructions (SK-4100; Vector laboratories), the avidin-biotin peroxidase complex was used, followed by colorimetric detection using DAB. Finally, hematoxylin was used to counterstain the sections and coverslips were mounted.
C57BL/6 mice, male, 4–6 week old were obtained from the Animal Center of East China Normal University. All animal experimental protocols were approved by the Animal Investigation Committee of the Institute of Biomedical Sciences, East China Normal University. PAN02 cells that stably expressed luciferase (PAN02-luc) were embedded in Matrigel (BD Biosciences) were injected with 5 × 10^5 in the tail of the pancreas. On the next day (day 0), the mice were subjected to bioluminescent imaging and divided into four groups according to the luciferase luminescence value. Mice were treated with intraperitoneal injection of indicated compound or drug. Tumor growth was analyzed once a week by an IVIS Imaging System (Xenogen Corporation, Alameda, CA) and end of study tumor weight was determined immediately postmortem. […] Images and measurements of bioluminescent signals were acquired and analyzed using Living Image and Xenogen software.

Experiment [2] deals with PAN02-luc. As to the kind of experiment: Pancreatic cancer liver metastatic mouse model. Format: in vivo, C57BL/6 mice. The procedure:
C57BL/6 mice were intrasplenically injected with luciferase-expressing PAN02 cells (PAN02-luc) in matrigel and tumor growth was assessed (A) and quantified (B) by bioluminescent imaging weekly. […] C After 4 weeks, mice were sacrificed and livers were imaged. D The body weight of C57BL/6 tumor-bearing mice were measured weekly.
C57BL/6, male, 8-week-old mice were obtained from the Animal Center of East China Normal University. All animal experimental protocols were approved by the Animal Investigation Committee of the Institute of Biomedical Sciences, East China Normal University. PAN02 cells that stably expressed luciferase (PAN02-luc) were embedded in Matrigel (BD Biosciences) and intrasplenically injected into mice. Tumors were allowed to grow for 1 week and treatment of the mice with either compound or control was started after grouping of the mice according to average bioluminescence. The IVIS Imaging System (Xenogen Corporation) was used to monitor pancreatic tumor growth and metastasis. Images and measurements of bioluminescent signals were acquired and analyzed using Living Image and Xenogen software.

In experiment [3] the target is His-STAT3^127-722 protein (Homo sapiens, UniProt P40763). The experiment can be described thus: Fluorescence polarization (FP) assay, STAT3-phosphopeptide interaction. Format: binding. The arrangement: We purified amino acids 127–722 of the STAT3 protein for this assay; made in house. Particulars: Supplementary Table 1; inhibition of STAT3 dimerization in FP assay; read-out: FP assay (IC50 μM). In general terms: Fluorescence polarisation rises when a labelled molecule tumbles more slowly, as on binding a larger partner.
Sequence of His-STAT3^127-722 protein (P40763 127-722): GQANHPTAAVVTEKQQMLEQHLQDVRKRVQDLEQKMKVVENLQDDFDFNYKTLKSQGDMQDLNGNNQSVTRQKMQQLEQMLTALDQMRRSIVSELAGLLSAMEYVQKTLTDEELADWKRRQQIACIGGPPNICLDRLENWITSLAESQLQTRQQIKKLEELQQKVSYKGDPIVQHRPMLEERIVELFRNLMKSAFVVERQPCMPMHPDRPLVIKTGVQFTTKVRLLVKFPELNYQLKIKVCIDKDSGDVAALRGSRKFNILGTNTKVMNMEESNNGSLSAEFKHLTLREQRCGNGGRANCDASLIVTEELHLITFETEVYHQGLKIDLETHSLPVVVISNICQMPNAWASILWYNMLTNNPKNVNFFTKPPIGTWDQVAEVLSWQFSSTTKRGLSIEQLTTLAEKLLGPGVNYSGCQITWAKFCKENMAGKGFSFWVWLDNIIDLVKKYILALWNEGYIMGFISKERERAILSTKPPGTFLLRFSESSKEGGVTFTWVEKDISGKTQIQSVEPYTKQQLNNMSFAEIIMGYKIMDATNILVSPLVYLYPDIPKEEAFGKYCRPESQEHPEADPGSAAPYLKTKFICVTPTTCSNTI
Protocol: A Purified STAT3 protein was incubated with labeled phosphopeptide, 5-carboxyfluorescein-GpYLPQTV-NH2 for 1 h at 37 °C. FP signals were measured, and the data were analyzed using Graph Pad 7.0 software. […] C Different concentrations of N4 were pre-incubated with recombined STAT3 protein for 1 h, then 10 nM of labeled peptide was added for 1 h. The IC50 was calculated using Graph Pad 7.0.
The labeled phosphopeptide: 5-carboxyfluorescein-GpYLPQTV-NH2 (where pY represents phospho-Tyr) was used as the STAT3 binding probe. To evaluate the effect of compounds in inhibiting STAT3-peptide interaction, serial dilutions of the STAT3 competitors were prepared. The diluted compounds were added to the reaction mixture in 100 μl of FP buffer (50 mM HEPES, pH 7.5, 150 mM NaCl, 0.1% NP-40, and 1 mM dithiothreitol) containing 500 nM his-STAT3^127–722 protein for pre-incubation at 37 °C for 1 h. Then, 10 nM of the labeled peptide was added and incubated for 1 h. After incubation, FP was measured on a Cytation^TM 5 cell imaging multi-mode Reader (BioTek) using excitation and emission wavelengths of 480 nm and 535 nm, respectively. Each reaction was repeated two or three times. Binding or competitive parameters were calculated from a nonlinear regression using GraphPad Prism 7.0.

The target of a further experiment is T1, STAT3^127–722 protein (Homo sapiens, UniProt P40763).
T1 construct: made in house
T1 sequence (P40763 127-722): as above
As to the kind of experiment: Surface plasmon resonance (SPR) assay. Type of experiment: binding. Particulars: SPR. The procedure: Surface plasmon resonance (SPR) analysis was conducted with a Biacore T200 instrument (GE Healthcare) with CM5 sensor chip (GE Healthcare). To test N4 binding of STAT3^127–722 protein, serially diluted concentrations of N4 were injected into the flow system. Experiments were conducted using phosphate buffered saline (PBS) and the analyte was injected at the flow rate of 30 μL/min. The association time was 60 s and the dissociation time was 30 s. Since N4 was dissolved in PBS containing 5% dimethyl sulfoxide and a solvent correction assay was performed to adjust the results. STAT3^127–722 protein was immobilized on the sensor chip (CM5) using the amine-coupling method according to standard protocols. N4 or Stattic at various concentrations were injected into the flow system. […] The KD values were calculated with the kinetics and affinity analysis option of Biacore T200 plus evaluation software (version 3.0).

As for `COc1ccc(S(=O)(=O)Nc2cc(-c3c(O)ccc4ccccc34)c(O)c3ccccc23)cc1` [C188-9, reference compound], the “tumor volume suppressed compared with the control group” value with PAN02-luc [1] was determined as 48.23%. Besides, the “all mice died by week” value in the experiment with PAN02-luc [2] (C188-9 group, n = 5) was at most 6 week. For the same molecule, the “tumor metastasis suppressed compared with the control group” value with PAN02-luc [2] (week 4, C188-9 group) was determined as 30.65%.

Take `O=[N+]([O-])c1ccc2c(c1)S(=O)(=O)C=C2` [Stattic, reference compound]: the 50% inhibitory concentration (IC50) – broadly, the concentration that gives 50% inhibition – in experiment [3] is 4.99 µM. In addition, the Kd – broadly, the constant that tells how readily two partners part at equilibrium – at STAT3^127–722 protein (STAT3^127–722 immobilized on CM5 chip, 25 °C) is 9.62 µM; on STAT3^127–722 protein (value given in figure), 9.62 µM.
